Measured values reported in patent US20020052295A1, “Diacyl derivatives of propylene diamine having herbicidal activity” (priority 1999, published 2002).

Legend:
CHEAL = assay: Post-emergence herbicidal activity on CHEAL (common lambsquarters); format: in vivo, Chenopodium album; conditions: post-emergence spray; lowest tested rate with 80% or greater inhibition; about 14 days after treatment
Source text: (§1) All such uses, and the biological activity enabling such uses, are embraced by the term “herbicidal” herein. Tables 15 and 16 summarize results of tests conducted as described below to determine the pre-emergence herbicidal activity, in the form of a GR80 value, of illustrative compounds of this invention. […] Where herbicidal activity was evident but 80% inhibition was not achieved at the highest rate tested (typically 1000 g/ha), an asterisk (*) is shown in the following tables. Herbicidal activity evident in the form of symptoms of phytotoxicity, in the absence of at least 80% inhibition at any rate, is indicated in the tables by “phyto”. A blank cell in the following tables indicates no herbicidal or phytotoxic response at any rate tested.
(§2) In another set of tests, the post-emergence activity of compounds of this invention was evaluated on the cool season species listed above. The following procedure was used.
(§3) A pre-prepared topsoil mixture (described above) was placed in a pot and compacted to a depth of 1.0 to 1.25 cm from the top of the pot. Seeds of each of several monocotyledonous and dicotyledonous annual plant species were placed on top of the soil The seeds were covered with a mixture of 50% topsoil and 50% Rediearth™ in sufficient quantity to level-fill the pots. The pots were then placed on a greenhouse bench and subirrigated as needed until plants growing from the seeds had emerged and reached a suitable growth stage for post-emergence treatment, typically 9 to 14 days after planting.
(§4) A known amount of each test compound dissolved or suspended in an appropriate organic solvent was diluted with a 50:50 mix of acetone and water and applied to the plants by spraying with a standard spray nozzle in a spray volume of 3,100 l/ha at a spray pressure of […] (30 psig). Control plants were not sprayed.
(§5) After treatment the plants were placed in a greenhouse with a 30/21° C. day/night temperature regime and were subsequently watered as needed for growth. Approximately 14 days after treatment, the plants were observed and herbicidal efficacy recorded as percent inhibition by comparison with control plants.

SOLNI [1] = assay: Post-emergence herbicidal activity on SOLNI (black nightshade); format: in vivo, Solanum nigrum; conditions: post-emergence spray; lowest tested rate with 80% or greater inhibition; about 14 days after treatment
Source text: as §1, §2, §3, §4, §5

BRAPP [2] = assay: Post-emergence herbicidal activity on BRAPP (broadleaf signalgrass); format: in vivo, Brachiaria platyphylla; conditions: post-emergence spray; lowest tested rate with 80% or greater inhibition; about 14 days after treatment
Source text: as §1, §2, §3, §4, §5

DIGSA = assay: Post-emergence herbicidal activity on DIGSA (large crabgrass); format: in vivo, Digitaria sanguinalis; conditions: post-emergence spray; lowest tested rate with 80% or greater inhibition; about 14 days after treatment
ABUTH [3] = assay: Post-emergence herbicidal activity on ABUTH (velvetleaf); format: in vivo, Abutilon theophrasti; conditions: post-emergence spray; lowest tested rate with 80% or greater inhibition; about 14 days after treatment
Source text: as §1, §2, §3, §4, §5

SORVU = assay: Post-emergence herbicidal activity on SORVU (shattercane); format: in vivo, Sorghum vulgare; conditions: post-emergence spray; lowest tested rate with 80% or greater inhibition; about 14 days after treatment
Source text: as §1, §2, §3, §4, §5

PANDI = assay: Post-emergence herbicidal activity on PANDI (fall panicum); format: in vivo, Panicum dichotomiflorum; conditions: post-emergence spray; lowest tested rate with 80% or greater inhibition; about 14 days after treatment
Source text: as §1, §2, §3, §4, §5

CIRAR = assay: Post-emergence herbicidal activity on CIRAR (canada thistle, seedling); format: in vivo, Cirsium arvense; conditions: post-emergence spray; lowest tested rate with 80% or greater inhibition; about 14 days after treatment
Source text: as §1, §2, §3, §4, §5

POROL = assay: Post-emergence herbicidal activity on POROL (common purslane; table head prints PORAL); format: in vivo, Portulaca oleracea; conditions: post-emergence spray; lowest tested rate with 80% or greater inhibition; about 14 days after treatment
Source text: as §1, §2, §3, §4, §5

ECHCG = assay: Post-emergence herbicidal activity on ECHCG (barnyardgrass); format: in vivo, Echinochloa crus-galli; conditions: post-emergence spray; lowest tested rate with 80% or greater inhibition; about 14 days after treatment
Source text: as §1, §2, §3, §4, §5

SORHA [4] = assay: Post-emergence herbicidal activity on SORHA (johnsongrass, seedling); format: in vivo, Sorghum halepense; conditions: post-emergence spray; lowest tested rate with 80% or greater inhibition; about 14 days after treatment
Source text: as §1, §2, §3, §4, §5

DATST = assay: Post-emergence herbicidal activity on DATST (jimsonweed); format: in vivo, Datura stramonium; conditions: post-emergence spray; lowest tested rate with 80% or greater inhibition; about 14 days after treatment
Source text: as §1, §2, §3, §4, §5

AMARE = assay: Post-emergence herbicidal activity on AMARE (redroot pigweed); format: in vivo, Amaranthus retroflexus; conditions: post-emergence spray; lowest tested rate with 80% or greater inhibition; about 14 days after treatment
Source text: as §1, §2, §3, §4, §5

PANMI = assay: Post-emergence herbicidal activity on PANMI (wild proso millet); format: in vivo, Panicum miliaceum; conditions: post-emergence spray; lowest tested rate with 80% or greater inhibition; about 14 days after treatment
SETFA [5] = assay: Post-emergence herbicidal activity on SETFA (giant foxtail); format: in vivo, Setaria faberi; conditions: post-emergence spray; lowest tested rate with 80% or greater inhibition; about 14 days after treatment
Source text: as §1, §2, §3, §4, §5

CONAR = assay: Post-emergence herbicidal activity on CONAR (field bindweed); format: in vivo, Convolvulus arvensis; conditions: post-emergence spray; lowest tested rate with 80% or greater inhibition; about 14 days after treatment
Source text: as §1, §2, §3, §4, §5

SORHA [6] = assay: Pre-emergence herbicidal activity on SORHA (johnsongrass, seedling); format: in vivo, Sorghum halepense; conditions: lowest tested rate giving 80% or greater inhibition, approx. 14 days after planting and treating, greenhouse
Summary of the method: (§6)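 Values are GR80 (rate giving 80% inhibition), with rates up to typically 1000 g/ha. Inhibition is visually recorded against untreated pots roughly two weeks after sowing and surface treatment in a 30/21 °C day/night greenhouse.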

SOLNI [7] = assay: Pre-emergence herbicidal activity on SOLNI (black nightshade); format: in vivo, Solanum nigrum; conditions: lowest tested rate giving 80% or greater inhibition, approx. 14 days after planting and treating, greenhouse
Summary of the method: as §6

ABUTH [8] = assay: Pre-emergence herbicidal activity on ABUTH (velvetleaf); format: in vivo, Abutilon theophrasti; conditions: lowest tested rate giving 80% or greater inhibition, approx. 14 days after planting and treating, greenhouse
Summary of the method: as §6

BRAPP [9] = assay: Pre-emergence herbicidal activity on BRAPP (broadleaf signalgrass); format: in vivo, Brachiaria platyphylla; conditions: lowest tested rate giving 80% or greater inhibition, approx. 14 days after planting and treating, greenhouse
Summary of the method: as §6

SETFA [10] = assay: Pre-emergence herbicidal activity on SETFA (giant foxtail); format: in vivo, Setaria faberi; conditions: lowest tested rate giving 80% or greater inhibition, approx. 14 days after planting and treating, greenhouse
Summary of the method: as §6

| SMILES | Post-emergence activity (GR80) CHEAL (CHEAL) | Post-emergence activity (GR80) SOLNI (SOLNI [1]) | Post-emergence activity (GR80) BRAPP (BRAPP [2]) | Post-emergence activity (GR80) DIGSA (DIGSA) | Post-emergence activity (GR80) ABUTH (ABUTH [3]) | Post-emergence activity (GR80) SORVU (SORVU) | Post-emergence activity (GR80) PANDI (PANDI) | Post-emergence activity (GR80) PORAL (POROL) | Post-emergence activity (GR80) ECHCG (ECHCG) | Post-emergence activity (GR80) SORHA (SORHA [4]) | Post-emergence activity (GR80) DATST (DATST) | Post-emergence activity (GR80) AMARE (AMARE) | Post-emergence activity (GR80) PANMI (PANMI) | also measured |
| --- | --- | --- | --- | --- | --- | --- | --- | --- | --- | --- | --- | --- | --- | --- |
| O=C(NCC(CO)NC(=O)c1cccc(C(F)(F)F)c1)c1cccc(C(F)(F)F)c1 (stereo not shown) [Example 11, N,N′-(3-hydroxy-1,2-propanediylbis)-3-(trifluoromethyl)benzamide] | [empty] | [empty] | [empty] | [empty] | [empty] | [empty] | [empty] | [empty] | [empty] | [empty] | phyto | phyto | [empty] | Post-emergence activity (GR80) CIRAR (CIRAR): [empty] |
| CC(CNC(=O)c1cccc(C(F)(F)F)c1)NC(=O)c1ccccc1SCCCCl (stereo not shown) [Example 119] | [empty] | phyto | [empty] | [empty] | phyto | [empty] | [empty] | phyto | [empty] | [empty] | phyto | phyto | [empty] | Post-emergence activity (GR80) SETFA (SETFA [5]): [empty]; Post-emergence activity (GR80) CONAR (CONAR): phyto; Pre-emergence activity (GR80) on SORHA (SORHA [6]): phyto; Pre-emergence activity (GR80) on SOLNI (SOLNI [7]): 1000 g/ha; Pre-emergence activity (GR80) on ABUTH (ABUTH [8]): phyto; Pre-emergence activity (GR80) on BRAPP (BRAPP [9]): phyto; Pre-emergence activity (GR80) on SETFA (SETFA [10]): phyto |
